Data published in patent US9296631B2, “Preparation of environmentally acceptable scale inhibitors” (Ecolab USA Inc., priority 2008, dated 2016).

Legend:
[1] = Scale inhibitor performance, dynamic loop method; settings: Field I brine, 128 C, pH 7.7, 10 mL/min; hold time 1 hour
From the text: A number of scale inhibitor performance tests were undertaken using the dynamic loop method. This method is widely used in the oilfield service industry and is designed to evaluate the ability of a candidate scale inhibitor to delay the blockage of a small diameter metal capillary when injected with a scaling brine at constant flow rate under selected test conditions. The test conditions and water compositions are generally selected to represent, at least in-part, the process conditions under which a scale inhibitor might be deployed. The flow rate of the test brine is generally selected to allow the experiment to be performed in a repeatable and controlled manner. […]
Typically, one or more tests without any added scale inhibitor (blank tests) were performed in order to determine the scaling time for the un-inhibited brine under the given test conditions. […] The deposition of scale was monitored by measuring the differential pressure (ΔP) developed across the test capillary over time. […] Alternatively, the concentration of the scale inhibitor can be reduced step-wise and the minimum inhibitor concentration (MIC) required for preventing a given increase in ΔP over a given time period can be determined. […]
To prepare the test water, each water composition was divided into two parts. […] The pH of the individual waters was also measured and adjusted. […]

[2] = OECD 306 biodegradation test, closed bottle method; settings: percent of measured COD, no substrate, acidic, non-neutralized form; for BIODEGRADATION by OECD 306 Max, 28 d (%): 28 days; for BIODEGRADATION by OECD 306 Max, 63 d (%): 63 days
Experimental: Full details of the procedure and methods of calculation are publicly available in OECD documents. In all cases, the tests were performed without a substrate and the percent biodegradation was determined as a percentage of the measured chemical oxygen demand (COD).
Each of the datasets presented in Table 1 and FIGS. 2 through 5 were obtained on the products as described in their acidic, non-neutralized forms.

| Compound | MIC Field I (ppm) [1] | BIODEGRADATION by OECD 306 Max, 28 d (%) [2] [%] | BIODEGRADATION by OECD 306 Max, 28 d (%) ([2]; listed as Phosphonate 1) | BIODEGRADATION by OECD 306 Max, 63 d (%) [2] [%] |
| --- | --- | --- | --- | --- |
| O=P(O)(O)CN(CCN(CP(=O)(O)O)CP(=O)(O)O)CCN(CP(=O)(O)O)CP(=O)(O)O [DETA, diethylene triamine penta(methylene phosphonic acid)] | 6-8 ppm | 0 | 0 | – |
| O=P(O)(O)CN(CCCCCCN(CP(=O)(O)O)CP(=O)(O)O)CCCCCCN(CP(=O)(O)O)CP(=O)(O)O [BHMTPA, bis(hexamethylene) triamine penta(methylene phosphonic acid)] | – | 6 | – | – |
| O=P(O)(O)CN(CCO)CP(=O)(O)O [MEA, monoethanolamine bis(methylene phosphonic acid)] | – | 6 | – | 3 |
| O=P(O)(O)CN(CCN(CCN(CP(=O)(O)O)CP(=O)(O)O)CP(=O)(O)O)CCN(CP(=O)(O)O)CP(=O)(O)O [TETHMPA, tri-ethylene tetra amine hexa(methylene phosphonic acid)] | – | 0 | – | – |
| BAEE | – | 0 | – | 5 |
